Here are results for 4 compounds from patent US20130012466A1 (priority 2006, published 2013).

In one series the test system is SK-OV-3. Kind of series: Cytotoxicity assay (cell titer-glo and calcein AM), SK-OV-3. As to conditions: SK-OV-3, % error in parentheses.
A further series has as its system ADR-RES. Kind of series: Cytotoxicity assay (cell titer-glo and calcein AM), ADR-RES. Conditions: NCI/ADR RES, % error in parentheses.
A further series has as its system NCI-H460. Kind of series: Cytotoxicity assay (cell titer-glo and calcein AM), NCI-H460. As to conditions: NCI-H460, % error in parentheses.
The next series concerns MCF7. Nature of the series: Cytotoxicity assay (cell titer-glo and calcein AM), MCF7.
Another series concerns SF-268. Nature of the series: Cytotoxicity assay (cell titer-glo and calcein AM), SF-268. As to conditions: SF-268, % error in parentheses.
The test system of the next series is Hep3B. Kind of series: Cytotoxicity assay (cell titer-glo and calcein AM), Hep3B. As to conditions: Hep 3B, % error in parentheses.
Another series deals with Du145. Nature of the series: Cytotoxicity assay (cell titer-glo and calcein AM), Du145. Conditions: Du145, % error in parentheses.
The test system of a further series is A549. Nature of the series: Cytotoxicity assay (cell titer-glo and calcein AM), A549. Conditions: A549, % error in parentheses.
For series [1], the system named is mouse mammary normal epithelial control cell line. Kind of series: Cytotoxicity assay, normal control cell line.
Setting [2] is: read-out: Cytotoxicity IC50, SK-OV-3, CTG, CTG (cell titer-glo) readout.
[3] abbreviates: read-out: Cytotoxicity IC50, SK-OV-3, calcein, calcein AM readout.
[4] abbreviates: read-out: Cytotoxicity IC50, NCI/ADR RES, CTG, CTG (cell titer-glo) readout.
[5] abbreviates: read-out: Cytotoxicity IC50, NCI/ADR RES, calcein, calcein AM readout.
Setting [6] is: read-out: Cytotoxicity IC50, NCI-H460, CTG, CTG (cell titer-glo) readout.
[7] abbreviates: read-out: Cytotoxicity IC50, NCI-H460, calcein, calcein AM readout.
The mark [8] stands for this setting: read-out: Cytotoxicity IC50, MCF7, CTG, CTG (cell titer-glo) readout, % error in parentheses.
Setting [9] is: read-out: Cytotoxicity IC50, MCF7, calcein, calcein AM readout, % error in parentheses.
Setting [10] is: read-out: Cytotoxicity IC50, SF-268, CTG, CTG (cell titer-glo) readout.
Where [11] appears, read: read-out: Cytotoxicity IC50, SF-268, calcein, calcein AM readout.
Setting [12] is: read-out: Cytotoxicity IC50, Hep 3B, CTG, CTG (cell titer-glo) readout.
The mark [13] stands for this setting: read-out: Cytotoxicity IC50, Hep 3B, calcein, calcein AM readout.
The mark [14] stands for this setting: read-out: Cytotoxicity IC50, Du145, CTG, CTG (cell titer-glo) readout.
The mark [15] stands for this setting: read-out: Cytotoxicity IC50, Du145, calcein, calcein AM readout.
Setting [16] is: read-out: Cytotoxicity IC50, A549, CTG, CTG (cell titer-glo) readout.
Setting [17] is: read-out: Cytotoxicity IC50, A549, calcein, calcein AM readout.
Setting [18] is: read-out: Cytotoxicity IC50, NmuMG, CTG, CTG (cell titer-glo) readout, % error in parentheses.
[19] abbreviates: read-out: Cytotoxicity IC50, NmuMG, calcein, calcein AM readout, % error in parentheses.

Where two headings read alike, the source gives them in different places.

In the case of `COc1cc2c(c(OC)c1OC)-c1ccc(OC)c(=O)cc1[C@@H](NC(=O)CN(OC)[C@@H]1O[C@H](CSC(C)=O)[C@H](O)[C@H](O)[C@H]1O)CC2` [Col68, 6-deoxy-6-thio-acyl-D-galactoside], the IC50 in the series on SK-OV-3 (setting [2]) was 4.5 µM; in the series with SK-OV-3 (setting [3]), 2.43 µM; with ADR-RES (setting [4]), 4.88 µM; with ADR-RES (setting [5]), 2.04 µM; in the series with NCI-H460 (setting [6]), 4.41 µM; in the series on NCI-H460 (setting [7]), 3.12 µM. Besides, the IC50 in the series on MCF7 (setting [8]) is 2.42 µM; in the series with MCF7 (setting [9]), 2.54 µM; in the series on SF-268 (setting [10]), 3.85 µM; in the series with SF-268 (setting [11]), 3.27 µM; in the series on Hep3B (setting [12]), 5.22 µM; in the series with Hep3B (setting [13]), 7.92 µM. Further, the IC50 is 4.19 µM in the series with Du145 (setting [14]); 1.73 µM in the series on Du145 (setting [15]); 4.77 µM in the series on A549 (setting [16]); 7.67 µM in the series on A549 (setting [17]); 9.83 µM in series [1] (setting [18]); 9.44 µM in series [1] (setting [19]).

On to `COc1cc2c(c(OC)c1OC)-c1ccc(OC)c(=O)cc1C(NC(=O)CN(OC)C1OCC(O)C(O)C1O)CC2` [Col17, L-xyloside], for which the IC50 with SK-OV-3 (setting [2]) is > 10 µM; in the series with SK-OV-3 (setting [3]) it was > 10 µM; in the series on ADR-RES (setting [4]), > 10 µM; in the series with ADR-RES (setting [5]), > 10 µM; with NCI-H460 (setting [6]), 5.17 µM; with NCI-H460 (setting [7]), 5.61 µM. The IC50 was 6.22 µM with MCF7 (setting [8]); 5.09 µM with MCF7 (setting [9]); 5.93 µM with SF-268 (setting [10]); 9.72 µM in the series with SF-268 (setting [11]); > 10 µM in the series with Hep3B (setting [12]); > 10 µM with Hep3B (setting [13]). For the same compound, the IC50 in the series on Du145 (setting [14]) was 8.48 µM; in the series with Du145 (setting [15]) it was > 10 µM; with A549 (setting [16]) it was 9.4 µM; with A549 (setting [17]), > 10 µM; in series [1] (setting [18]), > 10 µM; in series [1] (setting [19]), > 10 µM.

With `COc1cc2c(c(OC)c1OC)-c1ccc(OC)c(=O)cc1[C@@H](NC(=O)CN(OC)[C@@H]1O[C@H](CBr)[C@H](O)[C@H](O)[C@H]1O)CC2` [Col42, 6-deoxy-6-bromo-D-galactoside], the IC50 is 8.36 µM in the series with SK-OV-3 (setting [2]); > 10 µM in the series with SK-OV-3 (setting [3]); 2.49 µM with ADR-RES (setting [4]); 2.23 µM in the series with ADR-RES (setting [5]); 4.4 µM in the series with NCI-H460 (setting [6]); > 10 µM with NCI-H460 (setting [7]). In addition, the IC50 was 4.9 µM in the series with MCF7 (setting [8]); 3.69 µM in the series with MCF7 (setting [9]); 6.37 µM with SF-268 (setting [10]); 3.31 µM in the series with SF-268 (setting [11]); > 10 µM with Hep3B (setting [12]); > 10 µM with Hep3B (setting [13]). The IC50 was 4.47 µM in the series with Du145 (setting [14]); 4.26 µM in the series on Du145 (setting [15]); 3.94 µM with A549 (setting [16]); 2.64 µM in the series with A549 (setting [17]); 2.83 µM in series [1] (setting [18]); 2.92 µM in series [1] (setting [19]).

Take novioside [Col29]: the IC50 is 1.03 µM in the series on SK-OV-3 (setting [2]); 4.35 µM in the series on SK-OV-3 (setting [3]); 1.56 µM with ADR-RES (setting [4]); 1.18 µM with ADR-RES (setting [5]); 0.98 µM with NCI-H460 (setting [6]); 3.37 µM with NCI-H460 (setting [7]). In addition, the IC50 in the series with MCF7 (setting [8]) is 0.61 µM; in the series on MCF7 (setting [9]) it was 0.3 µM; with SF-268 (setting [10]) it was 1.12 µM; in the series with SF-268 (setting [11]) it was 1.28 µM; in the series with Hep3B (setting [12]), 2.47 µM; in the series with Hep3B (setting [13]) it was 2.94 µM. Also, the IC50 in the series on Du145 (setting [14]) is 1.24 µM; in the series with Du145 (setting [15]) it was 0.55 µM; in the series with A549 (setting [16]), 1.86 µM; in the series with A549 (setting [17]), 2.18 µM; in series [1] (setting [18]) it was > 5 µM; in series [1] (setting [19]), > 5 µM.
